Experiments:
[1] = test system: Leishmania infantum; assay: microbe, parasite or virus in culture; assay type: functional; details: MHOM/BR/1972/BH046, 72 h
Description: Anti-leishmanial activity against Leishmania infantum MHOM/BR/1972/BH046 amastigotes infected in cells measured after 3 days by Draq5 staining based assay

[2] = (§1) Cytotoxicity against human THP1 cells measured after 72 hrs by resazurin assay; assay type: cell-based, THP-1; details: THP-1 cells
[3] = in vitro; details: human
Description: Selectivity index, ratio of CC50 for human THP1 cells to EC50 for Leishmania infantum MHOM/BR/1972/BH046 amastigotes

[4] = in vitro; details: monkey, Vero cells
Description: Selectivity index, ratio of CC50 for African green monkey Vero cells to EC50 for Leishmania infantum MHOM/BR/1972/BH046 amastigotes

[5] = test system: THP-1; assay: as §1; assay type: cell-based; details: thp-1, 72 h
[6] = test system: Vero; assay: (§2) Cytotoxicity against African green monkey Vero cells measured after 72 hrs by resazurin assay; assay type: cell-based; details: chlorocebus sabaeus, vero, 72 h
[7] = as §2; assay type: cell-based; details: chlorocebus sabaeus, Vero cells

Structure (SMILES)	EC50 [1]	CC50 at 72 h [2]	selectivity ratio [3]	selectivity ratio [4]	CC50 [5]	CC50 [6]	selectivity ratio ([3]; THP-1 cells)	CC50 at 72 h [7]
C[C@@H]1[C@H](O)[C@@H](C)/C=C/C=C/C=C/C=C/C=C/C=C/C=C/[C@H](O[C@@H]2O[C@H](C)[C@@H](O)[C@H](N)[C@@H]2O)C[C@@H]2O[C@](O)(C[C@@H](O)C[C@@H](O)[C@H](O)CC[C@@H](O)C[C@@H](O)CC(=O)O[C@H]1C)C[C@H](O)[C@H]2C(=O)O [AMPHOTERICIN B]	1.92 µM	> 50 µM	> 26					
O=C(/C=C/c1ccc([N+](=O)[O-])o1)c1ccc(N2CCCCC2)cc1	6.32 µM			55	> 50 µM	349 µM	> 7.91	
O=C(/C=C/c1ccc([N+](=O)[O-])cc1)c1ccc(N2CCCCC2)cc1	> 50 µM				> 50 µM			
CN(C)c1ccc(/C=C/C(=O)c2ccc(-c3ccccc3)cc2)cc1	> 50 µM				> 50 µM			
O=C(/C=C/c1ccc([N+](=O)[O-])o1)c1ccc(C2CCCCC2)cc1		3.1 to 31.1 µM		9.1 to 10		> 100 µM	2.8 to 2.84	
CSc1ccc(C(=O)/C=C/c2ccc([N+](=O)[O-])s2)cc1	> 50 µM	8.56 µM						> 100 µM
CC(C)(C)c1ccc(C(=O)/C=C/c2ccc([N+](=O)[O-])s2)cc1	31.1 µM	8.4 to 8.49 µM		3 to 3.2		> 100 µM	0.2 to 0.27	
O=C(/C=C/c1ccc(Cl)s1)c1ccc(-n2ccnc2)cc1	21.4 µM	> 50 µM					> 2.33	
O=C(/C=C/c1ccc([N+](=O)[O-])s1)c1ccc(N2CCOCC2)cc1	> 50 µM	39.9 µM						
O=C(/C=C/c1ccc([N+](=O)[O-])o1)c1cccc(Br)c1	23.8 µM			2.8 to 2.9	14.9 µM	68.8 µM	0.6 to 0.63	
COc1ccc(/C=C/C(=O)c2cccc(Br)c2)cc1	> 50 µM	> 50 µM					> 50	> 100 µM
O=C(/C=C/c1ccc([N+](=O)[O-])o1)c1ccc(-n2ccnc2)cc1	12.4 µM	22.2 µM		8.1			1.79	> 100 µM
O=C(/C=C/c1ccc([N+](=O)[O-])o1)c1ccc(Br)cc1	29.1 µM	13.4 µM		3.4			0.46	> 100 µM
CC(C)(C)c1ccc(C(=O)/C=C/c2ccco2)cc1	> 50 µM	> 50 µM						
CCCCc1ccc(C(=O)/C=C/c2ccc([N+](=O)[O-])s2)cc1	> 50 µM	17.1 µM						81.3 µM
Cc1ccc(C(=O)/C=C/c2ccc([N+](=O)[O-])s2)cc1	> 50 µM	13.5 µM						
O=C(/C=C/c1ccc([N+](=O)[O-])s1)c1ccc(-n2ccnc2)cc1	31.4 µM	23.4 µM		1.3			0.75	42.7 µM

Structure (SMILES)	EC50 [1]	CC50 at 72 h [2]	selectivity ratio [3]	selectivity ratio [4]	CC50 [5]	CC50 [6]	selectivity ratio ([3]; THP-1 cells)	CC50 at 72 h [7]
CCCCc1ccc(C(=O)/C=C/c2ccc([N+](=O)[O-])o2)cc1	> 50 µM	48.7 µM						75.7 µM
CSc1ccc(C(=O)/C=C/c2ccc([N+](=O)[O-])o2)cc1	9.31 µM	13.1 µM		4.3		40.7 µM	1.4 to 1.41	
O=C(/C=C/c1ccc([N+](=O)[O-])o1)c1ccc(I)cc1		49.5 µM		3.6		> 100 µM	1.8 to 1.82	
O=C(/C=C/c1ccco1)c1ccc(N2CCCCC2)cc1	> 50 µM	> 50 µM					> 50	
O=C(/C=C/c1ccc([N+](=O)[O-])o1)c1ccc(N2CCNCC2)cc1	9.6 µM			10 to 10.4	> 50 µM	> 100 µM	> 5.2	
O=C(/C=C/c1ccc([N+](=O)[O-])o1)c1ccc(N2CCOCC2)cc1		49 µM						> 100 µM
O=C(/C=C/c1cccc([N+](=O)[O-])c1)c1ccc(N2CCCCC2)cc1	30.8 µM				> 50 µM		> 1.62	
O=C(/C=C/c1ccc([N+](=O)[O-])o1)c1ccc(-c2ccccc2)cc1	21.4 µM	50.4 µM		4.7			2.35	> 100 µM
CC(C)(C)c1ccc(C(=O)/C=C/c2ccc([N+](=O)[O-])o2)cc1	> 50 µM	> 50 µM						> 100 µM
Cc1ccccc1C(=O)/C=C/c1ccc([N+](=O)[O-])o1	37.7 µM	27.9 µM		1			0.74	41.3 µM
O=C(/C=C/c1ccc([N+](=O)[O-])s1)c1ccc(C2CCCCC2)cc1	> 50 µM	> 50 µM						
CSc1ccc(C(=O)/C=C/c2ccco2)cc1	45.5 µM	> 50 µM					> 1.09	
COc1ccc(/C=C/C(=O)c2cccc(I)c2)cc1	> 50 µM			2	> 50 µM	> 100 µM		
Cc1cccc(C(=O)/C=C/c2ccc([N+](=O)[O-])o2)c1	> 50 µM	42.1 µM					> 50	55.1 µM
O=C(/C=C/c1ccc([N+](=O)[O-])o1)c1ccc(N2CCCC2)cc1	11.8 µM	> 50 µM					> 4.26	
COc1ccc(/C=C/C(=O)c2ccc(-c3ccccc3)cc2)cc1	> 50 µM				> 50 µM			

Source: ChEMBL document CHEMBL4017481, “Computer-aided discovery of two novel chalcone-like compounds active and selective against Leishmania infantum” (Bioorg Med Chem Lett, 2017)
